Results reported in US11331304B2, “YAP1 inhibitors and methods” (The Jackson Laboratory, priority 2016, dated 2022).
“Also recorded” adds a separate entry of the source.

Key:
[1] = tested on: MED311 human patient-derived xenograft (PDX) SHH medulloblastoma cells; experiment: VP treatment of primary cells from SHH subgroup PDX model; format: cell-based
Procedure: (§1) To test YAP function in human cells, primary cells from a SHH subgroup PDX model (MED311) were isolated and treated with VP.
(§2) Primary cells from spontaneous mouse medulloblastoma ([…];p53^−/− or FSMO;GFAPcre) and MED311 PDX model were isolated and cultured in serum-free stem cell medium (DMEM/F12, B27, pen/strep, bFGF9 10 nanograms per milliliter (ng/mL)), and EGF (20 ng/mL). Number of self-renewing stem cells in vitro were measured by plating single cells at a clonal density (<1 cell/μL) and counting spheres >100 μM 7 days later. To establish IC50 values, 3000 mouse medulloblastoma cells were plated in 96 wells and treated varying concentrations of verteporfin and new derivatives were synthesized, in triplicate, and viability was measured using Cell Titer Blue assay (Promega, Madison, Wis.) 3 days after drug treatment.

[2] = Solubility of verteporfin derivative compounds in water and buffer (pH = 2); format: physicochemical
[3] = tested on: SMO-M2;GFAP-cre mice; experiment: Kaplan-Meier survival of SMO-M2;GFAP-cre mice, intraperitoneal injection; format: in vivo, mouse; conditions: IP injection, versus vehicle (DMSO), N=8 each group
[4] = tested on: Ptch;p53 and Smo-M2;GFAP-cre medulloblastoma cells; experiment: Self-renewal (sphere formation at clonal density) of SHH medulloblastoma tumorspheres; format: cell-based, mouse; conditions: for suppression of self-renewal: Ptch;p53 and Smo-M2;GFAP-cre cells in vitro, n=3; for self-renewal (in words): in vitro
Procedure: as §1, §2

[5] = tested on: Smo-M2;GFAP-cre medulloblastoma tumor slices; experiment: Tumor slice culture ex vivo, tissue viability by Cell Titer Blue; format: cell-based, mouse
Procedure: Fresh tumor tissues were dissected and cut into 250 micrometer (μm) thick slices and cultured at air-media interface in serum-free medium (DMEM/F12, B27, pen/strep) for 8-12 days. Tissue viability was measured by Cell Titer Blue assay (Promega, Madison, Wis.) at 2-4 days intervals. DMSO or drugs were added after each viability reading.

[6] = biological target: YAP:TEAD (Homo sapiens, UniProt P46937); conditions: Liu-Chittenden et al. 2012; cited from earlier work
Sequence of YAP:TEAD (P46937 whole entry): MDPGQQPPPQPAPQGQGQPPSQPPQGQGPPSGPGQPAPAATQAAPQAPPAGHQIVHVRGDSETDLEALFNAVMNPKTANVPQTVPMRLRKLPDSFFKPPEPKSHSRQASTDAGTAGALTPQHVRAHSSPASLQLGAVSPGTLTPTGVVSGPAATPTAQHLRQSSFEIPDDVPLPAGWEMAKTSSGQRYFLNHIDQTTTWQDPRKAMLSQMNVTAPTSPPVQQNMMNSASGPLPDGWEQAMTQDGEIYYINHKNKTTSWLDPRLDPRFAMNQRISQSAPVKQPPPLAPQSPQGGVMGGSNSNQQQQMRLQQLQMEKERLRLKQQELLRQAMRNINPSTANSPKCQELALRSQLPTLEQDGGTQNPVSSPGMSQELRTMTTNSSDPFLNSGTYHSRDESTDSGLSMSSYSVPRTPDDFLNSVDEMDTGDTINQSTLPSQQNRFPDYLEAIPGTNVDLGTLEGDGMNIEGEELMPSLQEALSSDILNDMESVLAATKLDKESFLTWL

Compound: C=Cc1c(C)c2cc3nc(cc4[nH]c(cc5nc(cc1[nH]2)C(C)=C5CCC(=O)O)c(CCC(=O)OC)c4C)[C@@]1(C)C3=CC=C(C(=O)OC)[C@H]1C(=O)OC [Verteporfin, 3-[(23 S,24R)-14-ethenyl-5-(3-methoxy-3-oxopropyl)-22,23-bis(methoxycarbonyl)-4,10,15,24-tetramethyl-25,26,27,28-tetraazahexacyclo[16.6.1.13,6.18,11.113,16.019,24]octacosa-1,3,5,7,9,11(27),12,14,16,18(25), 19,21-dodecaen-9-yl]propanoic acid]
- cell morphology ([1]; 24 hours post-VP treatment, listed as VP): significant morphology change; also recorded: morphological changes consistent with apoptosis
- proliferation ([1]; upon VP treatment): reduced proliferation
- solubility (in words) [2]: poor solubility
- Buffer (pH = 2) result ([2]; phosphate buffer pH = 2): insoluble
- Water result ([2]; water, at the amount per volume in mg/mL): insoluble
- survival [3]: increase survival
- suppression of self-renewal ([4]; 0.1 μM): ~50%
- self-renewal (in words) ([4]; 100 nM): suppressed self-renewal
- self-renewal (in words) ([4]; 1 μM): completely suppressed self-renewal
- suppression of self-renewal [4]: 100%
- response of tumor tissue explants grown as intact slices [5]: significant response
- YAP:TEAD binding [6]: inhibit YAP:TEAD binding
